Assay results from patent US9073876B2, “Flap modulators” (JANSSEN PHARMACEUTICA NV, priority 2013, dated 2015).
Where a name gives a salt, the structure may show the parent alone.

Experiments:
human FLAP = human FLAP (Homo sapiens (Human), UniProt P20292); assay: FLAP binding assay (HTRF); conditions: human FLAP-containing membranes, HTRF format; average of two assay plates, duplicates; read-out: FLAP Binding wild type HTRF Ki
Outline: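 Averaged over two plates (duplicate wells per plate); output given as HTRF ratio.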

[1] = tested on: leukotriene pathway in human whole blood (LTB4 levels); assay: Human whole blood assay (LTB4); format: cell-based; conditions: human whole blood diluted 1:1 in RPMI, stimulated with calcium ionophore A23187; single replicate
Outline: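 Heparinised human whole blood, diluted 1:1 in RPMI, was pre-incubated with test compounds for 15 min at 37° Celsius, then stimulated with A23187 (7 μg/mL) for 30 min at 37° Celsius. Plasma LTB4 was measured by immunoassay kit; IC50 from 4-parameter fit; single replicate, at least one healthy donor.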

Chain of human FLAP (P20292 whole entry): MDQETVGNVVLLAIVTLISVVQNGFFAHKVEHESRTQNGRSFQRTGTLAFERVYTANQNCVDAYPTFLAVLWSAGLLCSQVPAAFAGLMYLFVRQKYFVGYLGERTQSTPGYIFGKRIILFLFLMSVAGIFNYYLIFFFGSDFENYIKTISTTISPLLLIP

Row | Compound | Ki (human FLAP) | IC50 [1]
1 | Nc1cnc(-c2ccc(C3CCC3)c(OCCNc3cnccn3)c2F)cn1 [Example 295, 5-{4-Cyclobutyl-2-fluoro-3-[2-(pyrazin-2-ylamino)ethoxy]phenyl}pyrazin-2-amine trifluoroacetic acid salt] | 4.2 nM | 149 nM
2 | Nc1cnc(-c2ccc(C3CCC3)c(OCCNc3ncccn3)c2F)cn1 [Example 296, N-{2-[3-(5-Aminopyrazin-2-yl)-6-cyclobutyl-2-fluorophenoxy]ethyl}pyrimidin-2-amine trifluoroacetic acid salt] | 6.8 nM | 350 nM
3 | Nc1cnc(-c2ccc(C3CCC3)c(OCCNc3ccncn3)c2F)cn1 [Example 297, N-{2-[3-(5-Aminopyrazin-2-yl)-6-cyclobutyl-2-fluorophenoxy]ethyl}pyrimidin-4-amine] | 14.4 nM | 263 nM
4 | Nc1cnc(-c2ccc(C3CCC3)c(Oc3ncc(-c4cnc(N)nc4)cn3)c2F)cn1 [Example 313, 2′-[3-(5-Aminopyrazin-2-yl)-6-cyclobutyl-2-fluorophenoxy]-5,5′-bipyrimidin-2-amine] | 2.4 nM | 27 nM
5 | CCc1ccc(-c2cnc(N)cn2)c(F)c1Oc1nccc(N)n1 [Example 317, 2-[3-(5-Aminopyrazin-2-yl)-6-ethyl-2-fluorophenoxy]pyrimidin-4-amine] | 198 nM | 464 nM
6 | CC(C)c1ccc(-c2cnc(N)cn2)c(F)c1Oc1ncccn1 [Example 318, 5-[2-Fluoro-4-(1-methylethyl)-3-(pyrimidin-2-yloxy)phenyl]pyrazin-2-amine] | 58.1 nM | 103 nM
7 | CCCc1ccc(-c2cnc(N)cn2)c(F)c1Oc1ncccn1 [Example 319, 5-[2-Fluoro-4-propyl-3-(pyrimidin-2-yloxy)phenyl]pyrazin-2-amine] | 337 nM | 284 nM
8 | Nc1cnc(-c2ccc(CC3CCCCC3)c(Oc3ncccn3)c2F)cn1 [Example 321, 5-(4-(Cyclohexylmethyl)-2-fluoro-3-(pyrimidin-2-yloxy)phenyl)pyrazin-2-amine] | 116 nM | > 10000 nM
9 | CC(C)Cc1ccc(-c2cnc(N)cn2)c(F)c1Oc1ncccn1 [Example 323, 5-(2-Fluoro-4-isobutyl-3-(pyrimidin-2-yloxy)phenyl)pyrazin-2-amine] | 211 nM | 141 nM
10 | CC(C)(C)Cc1ccc(-c2cnc(N)cn2)c(F)c1Oc1ncccn1 [Example 324, 5-(2-Fluoro-4-neopentyl-3-(pyrimidin-2-yloxy)phenyl)pyrazin-2-amine] | 73.8 nM | 260 nM
11 | Nc1cnc(-c2ccc(C3CCCCC3)c(Oc3nccc(N)n3)c2F)cn1 [Example 325, 2-(3-(5-Aminopyrazin-2-yl)-6-cyclohexyl-2-fluorophenoxy)pyrimidin-4-amine] | 9.5 nM | 52.7 nM
12 | CC(C)Cc1ccc(-c2cnc(N)cn2)c(F)c1Oc1nccc(N)n1 [Example 328, 2-(3-(5-Aminopyrazin-2-yl)-2-fluoro-6-isobutylphenoxy)pyrimidin-4-amine] | 113 nM | 312 nM
13 | NC(=O)c1ncc(Oc2c(C3CCC3)ccc(-c3cnc(N)cn3)c2F)cn1 [Example 329, 5-(3-(5-Aminopyrazin-2-yl)-6-cyclobutyl-2-fluorophenoxy)pyrimidine-2-carboxamide] | 9.7 nM | 39 nM
14 | Cc1csc2ncnc(Oc3c(C4CCC4)ccc(-c4cnc(N)cn4)c3F)c12 [Example 331, 5-(4-Cyclobutyl-2-fluoro-3-((5-methylthieno[2,3-d]pyrimidin-4-yl)oxy)phenyl)pyrazin-2-amine] | 3.7 nM | 12.9 nM
15 | Nc1cnc(-c2ccc(C3CCC3)c(OCCNc3ccnc(N)n3)c2F)cn1 [Example 332, N^4-(2-(3-(5-Aminopyrazin-2-yl)-6-cyclobutyl-2-fluoro-phenoxy)ethyl)pyrimidine-2,4-diamine] | 45.8 nM | 450 nM
